Holding throughout (assay type): functional
For assay [1], the system named is Escherichia coli. In words: Antibacterial activity against Escherichia coli ATCC 8793 at 70 ug/ml after 24 hr by paper disk diffusion method. To be noted: ATCC 8793, 24 h, read-out: DIZ.
The test system of assay [2] is Staphylococcus aureus. As to the kind of experiment: Antibacterial activity against Staphylococcus aureus ATCC 25923 at 50 ug/ml after 24 hr by paper disk diffusion method. The following applies: ATCC 25923, 24 h, read-out: DIZ.
In assay [3] the test system is Staphylococcus aureus. As to the kind of experiment: Antibacterial activity against Staphylococcus aureus ATCC 25923 at 70 ug/ml after 24 hr by paper disk diffusion method. The following applies: ATCC 25923, 24 h, read-out: DIZ.
Assay [4] concerns Pseudomonas aeruginosa. As to the kind of experiment: Antibacterial activity against Pseudomonas aeruginosa ATCC 27853 at 30 ug/ml after 24 hr by paper disk diffusion method. The following applies: ATCC 27853, 24 h, read-out: DIZ.
Assay [5] deals with Pseudomonas aeruginosa. In words: Antibacterial activity against Pseudomonas aeruginosa ATCC 27853 at 50 ug/ml after 24 hr by paper disk diffusion method. The following applies: ATCC 27853, 24 h, read-out: DIZ.
Assay [6] relates to Pseudomonas aeruginosa. As to the kind of experiment: Antibacterial activity against Pseudomonas aeruginosa ATCC 27853 at 70 ug/ml after 24 hr by paper disk diffusion method. The following applies: ATCC 27853, 24 h, read-out: DIZ.
In assay [7] the test system is Escherichia coli. In words: Antibacterial activity against Escherichia coli ATCC 8793 at 30 ug/ml after 24 hr by paper disk diffusion method. To be noted: ATCC 8793, 24 h, read-out: DIZ.
The subject of assay [8] is Escherichia coli. In words: Antibacterial activity against Escherichia coli ATCC 8793 at 50 ug/ml after 24 hr by paper disk diffusion method. To be noted: ATCC 8793, 24 h, read-out: DIZ.
Assay [9] relates to Fusarium oxysporum. In words: Antifungal activity against Fusarium oxysporum MTCC 2087 at 30 ug/ml by paper disk diffusion method. To be noted: read-out: DIZ.
Assay [10] concerns Fusarium oxysporum. In words: Antifungal activity against Fusarium oxysporum MTCC 2087 at 50 ug/ml by paper disk diffusion method. The following applies: read-out: DIZ.
Assay [11] concerns Fusarium oxysporum. In words: Antifungal activity against Fusarium oxysporum MTCC 2087 at 70 ug/ml by paper disk diffusion method. To be noted: read-out: DIZ.
Assay [12] has as its system Aspergillus niger. As to the kind of experiment: Antifungal activity against Aspergillus niger MTCC 3323 at 30 ug/ml by paper disk diffusion method. To be noted: read-out: DIZ.
The test system of assay [13] is Aspergillus niger. In words: Antifungal activity against Aspergillus niger MTCC 3323 at 50 ug/ml by paper disk diffusion method. The following applies: read-out: DIZ.
Assay [14] deals with Aspergillus niger. As to the kind of experiment: Antifungal activity against Aspergillus niger MTCC 3323 at 70 ug/ml by paper disk diffusion method. The following applies: read-out: DIZ.
The test system of assay [15] is Candida albicans. In words: Antifungal activity against Candida albicans MTCC 227 at 30 ug/ml by paper disk diffusion method. The following applies: read-out: DIZ.
For assay [16], the system named is Candida albicans. In words: Antifungal activity against Candida albicans MTCC 227 at 50 ug/ml by paper disk diffusion method. The following applies: read-out: DIZ.
Assay [17] relates to Candida albicans. As to the kind of experiment: Antifungal activity against Candida albicans MTCC 227 at 70 ug/ml by paper disk diffusion method. The following applies: read-out: DIZ.
Assay [18] deals with Bacillus subtilis. As to the kind of experiment: Antibacterial activity against Bacillus subtilis ATCC 6633 at 30 ug/ml after 24 hr by paper disk diffusion method. To be noted: ATCC 6633, 24 h, read-out: DIZ.
In assay [19] the test system is Bacillus subtilis. In words: Antibacterial activity against Bacillus subtilis ATCC 6633 at 50 ug/ml after 24 hr by paper disk diffusion method. To be noted: ATCC 6633, 24 h, read-out: DIZ.
The subject of assay [20] is Bacillus subtilis. As to the kind of experiment: Antibacterial activity against Bacillus subtilis ATCC 6633 at 70 ug/ml after 24 hr by paper disk diffusion method. The following applies: ATCC 6633, 24 h, read-out: DIZ.
Assay [21] relates to Staphylococcus aureus. As to the kind of experiment: Antibacterial activity against Staphylococcus aureus ATCC 25923 at 30 ug/ml after 24 hr by paper disk diffusion method. To be noted: ATCC 25923, 24 h, read-out: DIZ.

`CCCCN(C)CC(=O)Nn1c(S)nnc1-c1ccc(C)cc1`: the zone of inhibition at 70 µg/mL in assay [1] was found to be 9.2 mm; in [3], 9.26 mm; in assay [6] it was 10.3 mm; in assay [11] it was 8.13 mm; in assay [14], 9.17 mm; in [17] it was 10.1 mm. The zone of inhibition at 70 µg/mL in assay [20] is 9.23 mm. The zone of inhibition at 50 µg/mL in assay [2] was found to be 8.23 mm; in [5], 9.33 mm; in assay [8] it was 8.56 mm; in assay [10], 7.2 mm; in [13], 8.26 mm; in [16] it was 9.23 mm. In addition, in assay [19], the zone of inhibition at 50 µg/mL worked out at 8.2 mm. Moreover, the zone of inhibition at 30 µg/mL in assay [4] is 8.2 mm; in assay [7], 7.26 mm; in [9] it was 6.03 mm; in assay [12], 7 mm; in assay [15] it was 8.16 mm; in [18] it was 7.43 mm. In [21], the zone of inhibition at 30 µg/mL stood at 7.4 mm.
As to `NCC[C@H](O)C(=O)N[C@@H]1C[C@H](N)[C@@H](O[C@H]2O[C@H](CN)[C@@H](O)[C@H](O)[C@H]2O)[C@H](O)[C@H]1O[C@H]1O[C@H](CO)[C@@H](O)[C@H](N)[C@H]1O` [AMIKACIN], the figures for the zone of inhibition at 30 µg/mL in assay [4] and in assay [7] were 22.1 mm and 21.3 mm, respectively.
Regarding `Clc1ccccc1C(c1ccccc1)(c1ccccc1)n1ccnc1` [CLOTRIMAZOLE], the zone of inhibition at 30 µg/mL was found to be 19.3 mm in [9], 22.6 mm in [12] and 21.9 mm in assay [15].
For the molecule `CN[C@H](CC(C)C)C(=O)N[C@H]1C(=O)N[C@@H](CC(N)=O)C(=O)N[C@H]2C(=O)N[C@H]3C(=O)N[C@H](C(=O)N[C@H](C(=O)O)c4cc(O)cc(O)c4-c4cc3ccc4O)[C@H](O)c3ccc(c(Cl)c3)Oc3cc2cc(c3O[C@@H]2O[C@H](CO)[C@@H](O)[C@H](O)[C@H]2O[C@H]2C[C@](C)(N)[C@H](O)[C@H](C)O2)Oc2ccc(cc2Cl)[C@H]1O` [VANCOMYCIN], the zone of inhibition at 30 µg/mL was 17.4 mm in [18] and 18.2 mm in [21].

(Values after ChEMBL document CHEMBL3045810, “Synthesis and evaluation of 4-(substituted)-acetylamino-3-mercapto-5-(4-substituted) phenyl-1,2,4-triazole derivatives as antimicrobial agents” (2012).)
